Residue numbers refer to the chain shown, from its start. Entries after “also recorded” stand apart in the source; their conditions may differ. Where two headings read alike, the source gives them in different places.
How the values were obtained:
FLJ38897-derived protein = target: T1, FLJ38897-derived protein (Homo sapiens, UniProt P57764); assay: SEC/MS interaction analysis, FLJ38897-derived protein (GSDMDC1); type: binding; conditions: spin column method; mixture with protein vs buffer solution alone; data not shown
T1 construct: His-tag (N); made in house; host or cells: Escherichia coli BL21star(DE3)pLysS
T1 sequence (P57764 265-484): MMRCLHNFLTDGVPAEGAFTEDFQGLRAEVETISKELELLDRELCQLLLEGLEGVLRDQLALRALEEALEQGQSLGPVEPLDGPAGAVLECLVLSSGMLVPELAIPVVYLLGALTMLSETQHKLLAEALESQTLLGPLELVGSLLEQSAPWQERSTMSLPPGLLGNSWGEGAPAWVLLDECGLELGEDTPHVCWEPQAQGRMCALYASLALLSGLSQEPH
Source text: (§1) To analyze the interactions between commonly used drugs and proteins expressed from human full-length cDNA clones while keeping both the proteins and the compounds in non-modified, non-immobilized state, size exclusion chromatography (SEC) and mass analysis were used in combination. The specific procedures are shown below.
(§2) The compound-protein mixture prepared in step 1 was subjected to chromatography using an SEC column, the compound and the protein were separated by SEC, and the compound that interacted with the bound compound or protein contained in the protein fraction was analyzed using a mass analyzer.
(§3) Protein concentrations were measured using BCA Protein Assay (PIERCE), in consideration of the purity calculated by SDS-PAGE.
(§4) Mass analysis was performed using LCQ DECA XP (Thermoelectron) or Q-TOF micro (Micromass), equipped with an ESI probe. The LC pump used was Agilent 1100 (Yokogawa Analytical Systems), and the autosampler used was HTC-PAL (CTC Analytics) equipped with a cooling stacker. The SEC column used was a micro-LC column or a 384-well spin column. […]
(§5) In the 384-well spin column method, Unifilter 100 (Whatman), packed with 10 μL (dry volume) of Bio-Gel P6 (BIO-RAD) and swollen with milliQ water, was used as the SEC column. […] The SEC spin column was mounted on an acetonitrile-aliquoted 384-well U-bottom plate and centrifuged; the SEC spin column filtrate, which is a protein fraction, was recovered in 50% acetonitrile. The protein precipitate produced by the acetonitrile was removed via centrifugation and filtration for deproteinization; the resulting filtrate was concentrated by centrifugal concentration and re-dissolved in 10 μL of 50% methanol to obtain a mass analysis sample. The mobile phase supplied to the mass analyzer was 0.1% formic acid/50% methanol solution in the positive ion mode, and 0.1% ammonia/50% methanol solution in the negative ion mode; these mobile phases were used at a flow rate of 40 μL/min. 2-μL of mass analysis samples were injected using an autosampler at 2-minute intervals; the mass spectral intensity of the compound was measured to retrieve the spectral intensity of the pharmaceutical compound contained in the SEC spin column filtrate (protein fraction eluted from SEC).

FLJ41991-derived protein = target: T2, FLJ41991-derived protein (Homo sapiens, UniProt P57764, E293G); assay: SEC/MS interaction analysis, FLJ41991-derived protein (GSDMDC1); type: binding; conditions: for interaction judged from spectrum intensity of the compound in the SEC spin column filtrate (protein fraction eluted from SEC): spin column method, doses of both compound and protein varied
T2 construct: His-tag (N); made in house; host or cells: Escherichia coli BL21star(DE3)pLysS (pDEST17)
T2 sequence (P57764 265-484 E293G): T1 sequence (P57764 265-484) with E29G
Source text: as §1, §2, §3, §4, §5

[1] = test system: FLJXXXXX-derived proteins; assay: SEC/MS spin column interaction analysis of FLJXXXXX-derived proteins and various compounds (Tables 30-1 to 30-4); type: binding, human
[2] = compound 12.5 μM, protein 10 μM
[3] = compound 12.5 μM, protein 25 μM
[4] = compound 62.5 μM, protein 10 μM
[5] = compound 62.5 μM, protein 25 μM
[6] = SEC spin column filtrate, spectral intensity increased with doses of compound and protein

Row | SMILES | interaction judged from mass spectrum peak intensity of the compound in the spin column filtrate (FLJ38897-derived protein) | spectrum intensity of the compound in the SEC spin column filtrate (FLJ41991-derived protein; compound 12.5 μM, protein 0 μM) | spectrum intensity of the compound in the SEC spin column filtrate (FLJ41991-derived protein; compound 12.5 μM, protein 5 μM) | spectrum intensity of the compound in the SEC spin column filtrate (FLJ41991-derived protein; [2]) | spectrum intensity of the compound in the SEC spin column filtrate (FLJ41991-derived protein; [3]) | spectrum intensity of the compound in the SEC spin column filtrate (FLJ41991-derived protein; compound 25 μM, protein 0 μM) | spectrum intensity of the compound in the SEC spin column filtrate (FLJ41991-derived protein; compound 25 μM, protein 5 μM) | spectrum intensity of the compound in the SEC spin column filtrate (FLJ41991-derived protein; compound 25 μM, protein 10 μM) | spectrum intensity of the compound in the SEC spin column filtrate (FLJ41991-derived protein; compound 25 μM, protein 25 μM) | spectrum intensity of the compound in the SEC spin column filtrate (FLJ41991-derived protein; compound 62.5 μM, protein 0 μM) | spectrum intensity of the compound in the SEC spin column filtrate (FLJ41991-derived protein; compound 62.5 μM, protein 5 μM) | spectrum intensity of the compound in the SEC spin column filtrate (FLJ41991-derived protein; [4]) | spectrum intensity of the compound in the SEC spin column filtrate (FLJ41991-derived protein; [5]) | interaction judged from spectrum intensity of the compound in the SEC spin column filtrate (protein fraction eluted from SEC) (FLJ41991-derived protein) | FLJ No of the derived protein with which the compound was judged to exhibit a concentration-dependent interaction [1, 6] | FLJ No of the derived protein with which the compound was judged to exhibit a concentration-dependent interaction [1]
1 | OCCN1CCN(CCCN2c3ccccc3Sc3ccc(Cl)cc32)CC1 [perphenazine] | there was an interaction | 23424 | 43607 | 83672 | 314285 | 38186 | 71806 | 229107 | 799962 | 35061 | 208220 | 695158 | 2872912 | concentration-dependent interaction | FLJ38897; also recorded: FLJ41991 | –
2 | COc1ccc(CCN2CCC(Nc3nc4ccccc4n3Cc3ccc(F)cc3)CC2)cc1 [astemizole] | there was an interaction | 24899 | 60014 | 160855 | 908771 | 19274 | 89714 | 732296 | 2056843 | 27212 | 361364 | 2309029 | 5171023 | concentration-dependent interaction | FLJ38897; also recorded: FLJ41991 | –
3 | CN(C)C(=O)C(CCN1CCC(O)(c2ccc(Cl)cc2)CC1)(c1ccccc1)c1ccccc1 [loperamide] | there was an interaction | 75412 | 200285 | 950587 | 1688197 | 263744 | 863800 | 1856141 | 4462655 | 1579322 | 3520629 | 6073080 | 9496680 | concentration-dependent interaction | – | FLJ41991; also recorded: FLJ38897
4 | CN1[C@@H]2CC[C@H]1C[C@@H](OC(c1ccccc1)c1ccccc1)C2 [benztropine] | there was an interaction | 143943 | 220928 | 285013 | 489071 | 152947 | 491863 | 560686 | 1352077 | 911727 | 1861766 | 2757526 | 3061987 | concentration-dependent interaction | FLJ38897; also recorded: FLJ41991 | –
5 | O=C(c1ccc(OCCN2CCCCC2)cc1)c1c(-c2ccc(O)cc2)sc2cc(O)ccc12 [raloxifene] | there was an interaction | 19251 | 32265 | 67187 | – | 37961 | 52442 | 119306 | 1312562 | 58164 | 153267 | 1091123 | 3195671 | concentration-dependent interaction | FLJ37909; also recorded: FLJ38897; also recorded: FLJ41991 | –
